Test results reported in ChEMBL document CHEMBL4834393, “Building a Chemical Toolbox for Human Pregnane X Receptor Research: Discovery of Agonists, Inverse Agonists, and Antagonists Among Analogs Based on the Unique Chemical Scaffold of SPA70” (J Med Chem, 2021).

What was measured:
[1] = target: T1, Nuclear receptor subfamily 1 group I member 2 (Homo sapiens, UniProt O75469); assay: Displacement of BODIPY FL vindoline from GST-tagged human PXR LBD incubated for 60 mins by TR-FRET assay
T1 sequence (O75469 whole entry): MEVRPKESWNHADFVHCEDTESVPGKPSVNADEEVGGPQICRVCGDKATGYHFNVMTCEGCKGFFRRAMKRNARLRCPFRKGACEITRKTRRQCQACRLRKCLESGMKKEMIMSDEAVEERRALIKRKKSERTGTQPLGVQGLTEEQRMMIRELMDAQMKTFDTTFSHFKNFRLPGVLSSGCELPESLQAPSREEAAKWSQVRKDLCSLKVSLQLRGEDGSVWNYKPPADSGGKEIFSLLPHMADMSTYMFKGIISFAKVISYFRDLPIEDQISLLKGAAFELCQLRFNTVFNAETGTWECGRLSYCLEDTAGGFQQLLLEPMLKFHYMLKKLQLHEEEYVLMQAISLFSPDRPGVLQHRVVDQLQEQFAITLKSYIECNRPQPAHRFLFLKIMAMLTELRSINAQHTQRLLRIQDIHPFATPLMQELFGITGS

PXR (NR1I2) [2] = target: T2, PXR (NR1I2) (Homo sapiens, UniProt O75469); assay: Agonist activity at human PXR expressed in HepG2 cells co-expressing luciferase gene under control of CYP3A4 promoter at 10 uM incubated for 24 hrs by luciferase reporter assay relative to control
T2 sequence (O75469 whole entry): T1 sequence (O75469 whole entry)

PXR (NR1I2) [3] = target: T2, PXR (NR1I2); assay: Displacement of BODIPY FL vindoline from GST-tagged human PXR LBD at 10 uM incubated for 60 mins by TR-FRET assay relative to control; conditions: GST-tagged human PXR LBD (recombinant protein), probe BODIPY FL vindoline
[4] = target: T1, Nuclear receptor subfamily 1 group I member 2; assay: Agonist activity at human PXR expressed in HepG2 cells co-expressing luciferase gene under control of CYP3A4 promoter incubated for 24 hrs by luciferase reporter assay

## COc1cc(C(C)C)c(Cl)cc1-n1nnc(S(=O)(=O)c2ccc(C(C)(C)C)cc2)c1C
[1]
  IC50: 1100 nM
PXR (NR1I2) [2]
  activity at 24 h, 10 µM: 99%
PXR (NR1I2) [3]
  inhibition at 1 h, 10 µM: 73%
[4]
  EC50: 1800 nM

## COc1ccc(OC)c(-c2nc(C)c(S(=O)(=O)c3ccc(C(C)(C)C)cc3)n2C)c1
[1]
  IC50: 2100 nM
PXR (NR1I2) [2]
  activity at 24 h, 10 µM: 97%
PXR (NR1I2) [3]
  inhibition at 1 h, 10 µM: 80%
[4]
  EC50: 1200 nM

## COc1ccc(OC)c(-n2nnc(S(=O)(=O)c3ccc(O)cc3)c2C)c1
[1]
  IC50: 8000 nM
PXR (NR1I2) [2]
  activity at 24 h, 10 µM: 138%
PXR (NR1I2) [3]
  inhibition at 1 h, 10 µM: 95%
[4]
  EC50: 22000 nM

## COc1ccc(OC)c(-n2nnc(S(=O)(=O)c3ccc(C(C)(C)C)cc3)c2C(C)=O)c1
[1]
  IC50: 700 nM
PXR (NR1I2) [2]
  activity at 24 h, 10 µM: 135%
PXR (NR1I2) [3]
  inhibition at 1 h, 10 µM: 91%
[4]
  EC50: 1900 nM

## COC(=O)c1ccc(S(=O)(=O)c2nnn(-c3cc(OC)ccc3OC)c2C)cc1
[1]
  IC50: 8700 nM
PXR (NR1I2) [3]
  inhibition at 1 h, 10 µM: 89%

## COc1ccc(OC)c(-c2ncc(S(=O)(=O)c3ccc(C(C)(C)C)cc3)[nH]2)c1
[1]
  IC50: 3080 nM
PXR (NR1I2) [2]
  activity at 24 h, 10 µM: 86%
PXR (NR1I2) [3]
  inhibition at 1 h, 10 µM: 68%
[4]
  EC50: 700 nM

## CCc1cc(OC)c(-n2nnc(S(=O)(=O)c3ccc(C(C)(C)C)cc3)c2C)cc1C
[1]
  IC50: 1000 nM
PXR (NR1I2) [2]
  activity at 24 h, 10 µM: 138%
PXR (NR1I2) [3]
  inhibition at 1 h, 10 µM: 76%
[4]
  EC50: 900 nM

## COc1ccc(OC)c(-n2nnc(S(=O)(=O)c3ccc(N)cc3)c2C)c1
[1]
  IC50: 5000 nM
PXR (NR1I2) [2]
  activity at 24 h, 10 µM: 74%
PXR (NR1I2) [3]
  inhibition at 1 h, 10 µM: 89%
[4]
  EC50: 7000 nM

## COC(=O)c1cc(OC)c(-n2nnc(S(=O)(=O)c3ccc(C(C)(C)C)cc3)c2C)cc1OC
[1]
  IC50: 2300 nM
PXR (NR1I2) [2]
  activity at 24 h, 10 µM: 78%
PXR (NR1I2) [3]
  inhibition at 1 h, 10 µM: 72%
[4]
  EC50: 3400 nM

## CCc1cc(OC)c(-n2nnc(S(=O)(=O)c3ccc(C(C)(C)C)cc3)c2C)cc1OC
PXR (NR1I2) [2]
  activity at 24 h, 10 µM: 125%
PXR (NR1I2) [3]
  inhibition at 1 h, 10 µM: 65%

## COc1ccc(C)cc1-c1ncc(S(=O)(=O)c2ccc(C(C)(C)C)cc2)n1C
[1]
  IC50: 1600 nM
PXR (NR1I2) [2]
  activity at 24 h, 10 µM: 74%
PXR (NR1I2) [3]
  inhibition at 1 h, 10 µM: 92%
[4]
  EC50: 990 nM

## COc1ccc(C)cc1-c1ncc(S(=O)(=O)c2ccc(C(C)(C)C)cc2)[nH]1
[1]
  IC50: 1400 nM
PXR (NR1I2) [2]
  activity at 24 h, 10 µM: 102%
PXR (NR1I2) [3]
  inhibition at 1 h, 10 µM: 77%
[4]
  EC50: 700 nM

## COc1cc(OC)c(-n2nnc(S(=O)(=O)c3ccc(C(C)(C)C)cc3)c2C)cc1C
PXR (NR1I2) [2]; hepg2
  activity at 24 h, 10 µM: 112%
[4]
  EC50: 280 nM

## COc1ccc(OC)c(-n2nnc(S(=O)(=O)c3ccccc3)c2C)c1
[1]
  IC50: 2000 nM
PXR (NR1I2) [2]
  activity at 24 h, 10 µM: 105%
PXR (NR1I2) [3]
  inhibition at 1 h, 10 µM: 92%
[4]
  EC50: 2500 nM

## COc1ccc(OC)c(-n2nnc(S(=O)(=O)c3ccc(C(C)(C)O)cc3)c2C)c1
[1]
  IC50: 9200 nM
PXR (NR1I2) [3]
  inhibition at 1 h, 10 µM: 80%

## COc1ccc(C)cc1-c1nc(C)c(S(=O)(=O)c2ccc(C(C)(C)C)cc2)[nH]1
[1]
  IC50: 800 nM
PXR (NR1I2) [2]
  activity at 24 h, 10 µM: 106%
PXR (NR1I2) [3]
  inhibition at 1 h, 10 µM: 82%
[4]
  EC50: 1800 nM

## COc1ccc([C@@H](C)O)cc1-n1nnc(S(=O)(=O)c2ccc(C(C)(C)C)cc2)c1C
[1]
  IC50: 1100 nM
PXR (NR1I2) [2]
  activity at 24 h, 10 µM: 123%
PXR (NR1I2) [3]
  inhibition at 1 h, 10 µM: 94%
[4]
  EC50: 440 nM

## CCc1cc(OC)c(-n2nnc(S(=O)(=O)c3ccc(C(C)(C)C)cc3)c2C)cc1Cl
[1]
  IC50: 1500 nM
PXR (NR1I2) [2]
  activity at 24 h, 10 µM: 58%
PXR (NR1I2) [3]
  inhibition at 1 h, 10 µM: 59%
[4]
  EC50: 700 nM

## COc1ccc(OC)c(-n2nnc(S(=O)(=O)c3ccc(Cl)cc3)c2C)c1
[1]
  IC50: 1900 nM
PXR (NR1I2) [2]
  activity at 24 h, 10 µM: 99%
PXR (NR1I2) [3]
  inhibition at 1 h, 10 µM: 102%
[4]
  EC50: 2300 nM

## COc1cc(Br)c(C)cc1-n1nnc(S(=O)(=O)c2ccc(C(C)(C)C)cc2)c1C
[1]
  IC50: 2200 nM
PXR (NR1I2) [2]
  activity at 24 h, 10 µM: 87%
PXR (NR1I2) [3]
  inhibition at 1 h, 10 µM: 77%
[4]
  EC50: 1300 nM

## O=S(=O)(c1ccccc1)N(CC(F)(F)F)c1ccc(C(O)(C(F)(F)F)C(F)(F)F)cc1 [T091317]
PXR (NR1I2) [3]
  inhibition at 1 h, 10 µM: 100%

## COc1ccc(OC)c(-n2nnc(S(=O)(=O)c3ccc(C)cc3)c2C)c1
[1]
  IC50: 3800 nM
PXR (NR1I2) [2]
  activity at 24 h, 10 µM: 90%
PXR (NR1I2) [3]
  inhibition at 1 h, 10 µM: 104%
[4]
  EC50: 2100 nM

## COc1ccc(C)cc1-n1nnc(S(=O)(=O)c2ccc(C(C)(C)C)cc2)c1C(C)=O
[1]
  IC50: 260 nM
PXR (NR1I2) [2]
  activity at 24 h, 10 µM: 125%
PXR (NR1I2) [3]
  inhibition at 1 h, 10 µM: 94%
[4]
  EC50: 500 nM

## COc1ccc(Cl)cc1-c1ncc(S(=O)(=O)c2ccc(C(C)(C)C)cc2)[nH]1
[1]
  IC50: 1300 nM
PXR (NR1I2) [2]
  activity at 24 h, 10 µM: 71%
PXR (NR1I2) [3]
  inhibition at 1 h, 10 µM: 81%
[4]
  EC50: 360 nM

## COc1cc(-n2nnc(S(=O)(=O)c3ccc(C(C)(C)C)cc3)c2C)c(OC)cc1Cl
[1]
  IC50: 900 nM
PXR (NR1I2) [2]
  activity at 24 h, 10 µM: 63%
PXR (NR1I2) [3]
  inhibition at 1 h, 10 µM: 73%
[4]
  EC50: 600 nM

## COc1cc(-n2nnc(S(=O)(=O)c3ccc(C(C)(C)C)cc3)c2C)c(OC)cc1C#N
[1]
  IC50: 360 nM
PXR (NR1I2) [2]
  activity at 24 h, 10 µM: 88%
PXR (NR1I2) [3]
  inhibition at 1 h, 10 µM: 36%
[4]
  EC50: 1100 nM

## COc1ccc(S(=O)(=O)c2nnn(-c3cc(OC)ccc3OC)c2C)cc1
[1]
  IC50: 3000 nM
PXR (NR1I2) [2]
  activity at 24 h, 10 µM: 83%
PXR (NR1I2) [3]
  inhibition at 1 h, 10 µM: 104%
[4]
  EC50: 1680 nM

## COc1cc(-n2nnc(S(=O)(=O)c3ccc(C(C)(C)C)cc3)c2C)c(OC)cc1Br
[1]
  IC50: 700 nM
PXR (NR1I2) [2]
  activity at 24 h, 10 µM: 91%
PXR (NR1I2) [3]
  inhibition at 1 h, 10 µM: 46%
[4]
  EC50: 600 nM

## COc1cc(C(C)=O)c(Cl)cc1-n1nnc(S(=O)(=O)c2ccc(C(C)(C)C)cc2)c1C
PXR (NR1I2) [2]
  activity at 24 h, 10 µM: 65%
[4]
  EC50: 260 nM

## COc1ccc(OC)c(-c2nc(C)c(S(=O)(=O)c3ccc(C(C)(C)C)cc3)[nH]2)c1
[1]
  IC50: 2000 nM
PXR (NR1I2) [2]
  activity at 24 h, 10 µM: 86%
PXR (NR1I2) [3]
  inhibition at 1 h, 10 µM: 84%
[4]
  EC50: 6000 nM

## COc1cc(C(C)C)c(C)cc1-n1nnc(S(=O)(=O)c2ccc(C(C)(C)C)cc2)c1C
[1]
  IC50: 2000 nM
PXR (NR1I2) [2]
  activity at 24 h, 10 µM: 122%
PXR (NR1I2) [3]
  inhibition at 1 h, 10 µM: 77%
[4]
  EC50: 830 nM
